Results as given in US9358276B2, “Methods of diagnosing and treating small intestinal bacterial overgrowth (SIBO) and SIBO-related conditions” (Cedars-Sinai Medical Center, priority 1999, dated 2016).

Assays:
[1] = test system: release of 5-HT from the proximal gut; experiment: 5-HT released by the proximal gut (ELISA of mid-gut fistula output); assay type: in vivo, dog; conditions: for amount of 5-HT released by the proximal gut: n=1
Protocol: To test the hypothesis that fat in the distal gut causes the release of 5-HT in the proximal gut, the amount of 5-HT collected from the output of the mid-gut fistula (proximal gut 5-HT) over a 90-minute period of buffer perfusion through both the duodenal and mid-gut fistulas (2 mL/min); buffer (control) or oleate (60 mM) was administered to the distal gut (n=1). The amount of 5-HT was determined using an ELISA kit specific for 5-HT (Sigma; Graham-Smith, D. G., The carcinoid syndrome, In: Topics in Gastroenterology, Truclove, S. C. and Lee, E. (eds.), Blackwells, London, p. 275 [1977]; Singh, S. M. et al., Concentrations of serotonin in plasma-a test for appendicitis?, Clin. Chem. 34:2572-2574 [1988]). The amount of 5-HT released by the proximal gut increased in response to fat in the distal gut from 100 μg in the control (buffer minus oleate) to 338 μg (buffer plus oleate to distal gut), showing that 5-HT is released in the proximal gut in response to fat in the distal gut. Thus, the release of 5-HT by the proximal gut can serve as a relayed signal for fat in the distal gut. The relayed release of 5-HT in the proximal gut in response to fat in the distal gut is consistent with Example 14(2), showing that slowing of intestinal transit by fat depends on an efferent 5-HT-mediated pathway to the proximal gut.
To test the hypothesis that 5-HT in the distal gut causes the release of 5-HT in the proximal gut, the amount of 5-HT collected from the output at the mid-gut fistula (Proximal gut 5-HT) over a 90-minute period of buffer perfusion through both the duodenal and mid-gut fistulas (2 mL/min each) was compared in the presence or absence of 5-HT (0.05 mg/kg/h) administered to the distal gut (n=1). 5-HT concentration was determined using an ELISA kit specific for 5-HT (Sigma). The amount of 5-HT released by the proximal gut increased from 156 μg in the control (minus distal 5-HT) to 450 μg (plus 5-HT to distal gut), implying that 5-HT is released by the proximal gut in response to 5-HT in the distal gut. Thus, the release of 5-HT by the proximal gut can serve as a relayed signal for distal gut 5-HT. This relayed release of 5-HT in the proximal gut explains the results of Example 14(6) showing that the slowing of intestinal transit by distal gut 5-HT was abolished by ondansetron in the proximal gut (efferent limb of response) as well as in the distal gut (afferent limb of response).
To test the hypothesis that the proximal gut releases 5-HT in response to lipid in the distal gut, we compared the amount of 5-HT in the output of the midgut fistula (i.e., proximal gut 5-HT) with buffered saline (control) or oleate in the distal gut. The amount of 5-HT collected over 90 min was measured using a 5-HT-specific ELISA test kit, as described herein above. Four dogs were tested.
The amount of 5-HT released from the proximal gut in response to intravenous PYY or buffered saline (Control) during buffer perfusion (2 mL/min over 90 minutes) through both the duodenal and mid-gut fistulas was measured to test the hypothesis that intravenous PYY (0.8 mg/kg/h) causes the release of 5-HT in the proximal gut. 5-HT was measured as in Example 14(9) above. The amount of 5-HT released by the proximal gut increased from 140.1 μg (Control) to 463.1 μg in response to intravenous PYY.

SIBO = experiment: Neomycin treatment of subjects with IBS and SIBO (LBHT, VAS); assay type: in vivo, human
Protocol: Subjects were tested after an overnight fast. At time zero, each subject swallowed 15 ml of Chronulac formula, delivering 10 g of lactulose; every 5-20 min thereafter, for 2-4 hours, a 50 cm^3 end-expiratory breath sample was taken with an airtight sampling bag. Each breath sample was then analyzed for hydrogen content with a gas chromatograph (Quintron Model DP, Quintron Instrument Co., Division of E.F. Brewer Co, Menomonee Falls, Wis. 53051), standardized using a QuinGas standard as instructed by the manufacturer. Hydrogen peaks were plotted before and after an antimicrobial treatment regimen for comparison. The normal range for the second hydrogen peak was 0 to 20 ppm.
The two hundred-two (202) human subjects were assessed for SIBO with LBHT. Of the 202 subjects in the database, 95 claimed to have been given a diagnosis of IBS. […] After these 22 subjects were excluded, 73 subjects remained.
Of the 124, 92 (74%) were positive for SIBO. […] Therefore, the incidence of SIBO among the 110 untreated subjects was 92 (84%), showing a strong association between a suspected diagnosis of IBS and the presence of SIBO. After neomycin treatment (500 mg twice daily for ten days), 23 of these 92 returned for follow-up testing. On a visual analog scores (VAS), subjects were asked to rate their degree of post-treatment improvement. These 23 subjects reported a 60±31% improvement, although 17 had only partial eradication of SIBO, based on their LBHT results. (FIG. 1).
There was a likely selection bias in the database due to the fact that subjects were referred for LBHT, because their physicians suspected they had SIBO. To correct for this bias, a pilot study was also conducted looking at the incidence of bacterial overgrowth in patients with IBS. […] Eight human subjects with a suspected diagnosis of IBS, based on the Rome criteria, were tested for SIBO, using LBHT as described in Example 2. […] Six of the 7 subjects testing positive for SIBO returned approximately 10 days after completion of a 10 day course of neomycin as described above. […] The six subjects reported an average improvement in their IBS symptoms of 65±28% (Range: 20-100%) on VAS scoring.

| Compound | amount of 5-HT released by the proximal gut ([1]; 60 mM oleate to distal gut without intravenous PYY) | amount of 5-HT released by the proximal gut ([1]; 60 mM oleate to distal gut, 90 min, control 100 μg) | amount of proximal gut 5-HT ([1]; oleate in distal gut, 90 min, buffer 82.7±20.53 ng, four dogs) | degree of post-treatment improvement (VAS) (SIBO; 23 IBS subjects with SIBO, 500 mg twice daily for ten days) | subjects with only partial eradication of SIBO (LBHT) (SIBO; of the 23 returning subjects) | average improvement in IBS symptoms on VAS scoring (SIBO; pilot study, six subjects) | post-treatment breath hydrogen peaks (SIBO; pilot study, six subjects) | range of improvement in IBS symptoms on VAS scoring (SIBO; pilot study, six subjects) | eradication of SIBO (LBHT) (SIBO; pilot study, six subjects, 10 day course) |
| --- | --- | --- | --- | --- | --- | --- | --- | --- | --- |
| CCCCCCCC/C=C\CCCCCCCC(=O)[O-].[Na+] [oleate, sodium oleate] | 509.8 µg | 338 µg | 211.75 ± 35.44 ng |  |  |  |  |  |  |
| neomycin |  |  |  | 60±31% | 17 | 65±28% | 0-20 ppm | 20-100% | completely eradicated |
